Test results from publication PMC3053401, “Renal Effects of the Novel Selective Adenosine A1 Receptor Blocker SLV329 in Experimental Liver Cirrhosis in Rats” (PLoS ONE, 2011).

What was measured:
[1] = molecular target: T1, Adenosine A2B receptor (Homo sapiens, UniProt P29275); assay: radioligand displacement, filtration, Cheng-Prusoff; type: binding; conditions: [3H]DPCPX; receptor preparation from HEK293 cells
T1 construct: gene ADORA2B; cloned human receptor in HEK293 cells; cells provided by Cerep
T1 sequence (P29275 1-332): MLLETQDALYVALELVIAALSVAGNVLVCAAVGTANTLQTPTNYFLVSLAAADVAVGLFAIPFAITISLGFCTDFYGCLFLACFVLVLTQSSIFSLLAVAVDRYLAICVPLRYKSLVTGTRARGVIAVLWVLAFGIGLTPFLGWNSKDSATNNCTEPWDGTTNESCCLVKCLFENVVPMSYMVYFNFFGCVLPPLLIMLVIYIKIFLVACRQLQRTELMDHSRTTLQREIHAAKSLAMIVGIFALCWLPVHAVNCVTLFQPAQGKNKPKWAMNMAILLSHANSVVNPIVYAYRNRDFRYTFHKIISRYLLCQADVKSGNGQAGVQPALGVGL
From the text: radioligand displacement, filtration, Cheng-Prusoff on Adenosine A2B receptor

[2] = molecular target: T2, Phosphodiesterase 4 enzyme; assay: radiometric enzyme inhibition assay, scintillation counting; type: biochemical; conditions: [3H]cAMP substrate; enzyme preparation from U-937 cells
T2 construct: gene PDE4A; native enzyme preparation from U-937 cells; provided by Cerep
From the text: radiometric enzyme inhibition assay, scintillation counting on Phosphodiesterase 4 enzyme

[3] = molecular target: T3, Phosphodiesterase 4 rolipram binding; assay: radioligand displacement, filtration, Cheng-Prusoff; conditions: [3H]rolipram; total brain; high-affinity rolipram-binding site
T3 construct: gene Pde4a; provided by Cerep
From the text: radioligand displacement, filtration, Cheng-Prusoff on Phosphodiesterase 4 rolipram binding

[4] = molecular target: T4, Adenosine A2A receptor (Homo sapiens, UniProt P29274); assay: as above; type: binding; conditions: [3H]CGS21680; receptor preparation from HEK293 cells
T4 construct: gene ADORA2A; cloned human receptor in HEK293 cells; cells provided by Cerep
T4 sequence (P29274 whole entry): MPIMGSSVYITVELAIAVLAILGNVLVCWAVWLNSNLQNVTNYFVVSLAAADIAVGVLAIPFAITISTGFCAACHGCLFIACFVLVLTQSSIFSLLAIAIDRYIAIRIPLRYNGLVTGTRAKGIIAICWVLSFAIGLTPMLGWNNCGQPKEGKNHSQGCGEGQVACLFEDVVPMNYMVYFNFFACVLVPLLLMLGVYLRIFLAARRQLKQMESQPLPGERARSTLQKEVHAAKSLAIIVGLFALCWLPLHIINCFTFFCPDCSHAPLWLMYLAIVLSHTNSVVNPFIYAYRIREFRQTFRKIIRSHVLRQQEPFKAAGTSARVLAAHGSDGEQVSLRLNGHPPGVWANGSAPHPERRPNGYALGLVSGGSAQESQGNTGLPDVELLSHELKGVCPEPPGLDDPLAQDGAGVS
From the text: radioligand displacement, filtration, Cheng-Prusoff on Adenosine A2A receptor

[5] = molecular target: T5, Adenosine A1 receptor (A1R) (Homo sapiens, UniProt P30542); assay: as above; type: binding; conditions: [3H]DPCPX; receptor preparation from CHO cells; antagonist
T5 construct: gene ADORA1; cloned human receptor in CHO cells; cells provided by Cerep
T5 sequence (P30542 1-326): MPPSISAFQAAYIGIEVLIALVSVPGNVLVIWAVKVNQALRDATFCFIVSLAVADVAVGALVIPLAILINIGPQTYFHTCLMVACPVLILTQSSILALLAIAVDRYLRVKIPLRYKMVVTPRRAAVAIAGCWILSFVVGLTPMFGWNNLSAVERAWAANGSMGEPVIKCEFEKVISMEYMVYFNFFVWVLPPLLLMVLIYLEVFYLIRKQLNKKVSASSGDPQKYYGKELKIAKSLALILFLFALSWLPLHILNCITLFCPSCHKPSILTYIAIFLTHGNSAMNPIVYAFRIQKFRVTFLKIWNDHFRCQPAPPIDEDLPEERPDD
From the text: radioligand displacement, filtration, Cheng-Prusoff on Adenosine A1 receptor (A1R)

[6] = molecular target: T6, Adenosine A3 receptor (Homo sapiens, UniProt P0DMS8); assay: as above; type: binding; conditions: [3H]AB-MECA; receptor preparation from HEK293 cells
T6 construct: gene ADORA3; cloned human receptor in HEK293 cells; cells provided by Cerep
T6 sequence (P0DMS8 1-318): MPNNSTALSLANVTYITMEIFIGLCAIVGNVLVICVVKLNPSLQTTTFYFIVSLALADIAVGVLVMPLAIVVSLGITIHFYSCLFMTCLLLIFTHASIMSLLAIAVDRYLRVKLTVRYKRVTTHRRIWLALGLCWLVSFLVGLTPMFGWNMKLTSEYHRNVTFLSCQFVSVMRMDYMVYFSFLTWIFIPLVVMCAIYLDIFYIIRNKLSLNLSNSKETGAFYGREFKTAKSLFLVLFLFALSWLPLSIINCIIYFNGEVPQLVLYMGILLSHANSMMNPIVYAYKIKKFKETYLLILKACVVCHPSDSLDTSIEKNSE
From the text: radioligand displacement, filtration, Cheng-Prusoff on Adenosine A3 receptor

SLV329
SLV329 Affinity [1]: 6.3±0.1 | SLV329 Affinity [2]: 5.4±0.1 | SLV329 Affinity [3]: 6.1±0.2 | SLV329 Affinity [4]: 7.2±0.2 | SLV329 Affinity [5]: 9.2±0.2 | SLV329 Affinity [6]: 6.9±0.1
